Assay results published in PubChem BioAssay (NCI).
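Five concentrations, 48 hours, 96-well plates. At the GI50, growth is halved. TGI: concentration producing complete growth inhibition.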

Columns and labels:
Assay in all cases: NCI-60 cell line screen, 48 h
DMS 273 small cell lung = tested on: DMS 273 small cell lung
HCC-2998 colon = tested on: HCC-2998 colon
HCT-15 colon = tested on: HCT-15 colon
HOP-92 NSCLC = tested on: HOP-92 NSCLC
NCI-H226 lung = tested on: NCI-H226 lung
NCI-H460 lung = tested on: NCI-H460 lung
OVCAR-3 ovarian = tested on: OVCAR-3 ovarian
SK-MEL-28 melanoma = tested on: SK-MEL-28 melanoma
SK-OV-3 ovarian = tested on: SK-OV-3 ovarian
SW-620 colon = tested on: SW-620 colon

Row | Structure (SMILES) | TGI (DMS 273 small cell lung) [µM] | TGI (HCC-2998 colon) [µM] | TGI (HCT-15 colon) [µM] | TGI (HOP-92 NSCLC) [µM] | TGI (NCI-H226 lung) [µM] | TGI (NCI-H460 lung) [µM] | TGI (OVCAR-3 ovarian) [µM] | TGI (SK-MEL-28 melanoma) [µM] | TGI (SK-OV-3 ovarian) [µM] | TGI (SW-620 colon) [µM] | GI50 (DMS 273 small cell lung) [nM] | GI50 (HCC-2998 colon) [nM] | GI50 (HCT-15 colon) [nM] | GI50 (HOP-92 NSCLC) [nM] | GI50 (NCI-H226 lung) [nM] | GI50 (NCI-H460 lung) [nM] | GI50 (OVCAR-3 ovarian) [nM] | GI50 (SK-MEL-28 melanoma) [nM] | GI50 (SK-OV-3 ovarian) [nM] | GI50 (SW-620 colon) [nM]
1 | C/C(=N\NS(=O)(=O)c1ccccc1)c1ccc(Cl)c(Cl)c1 | > 100 | > 100 | > 100 | > 100 | > 100 | > 100 | > 100 | > 100 | > 100 | > 100 |  |  |  |  |  |  |  |  |  | 
2 | CN(C)C(=O)OC(Cn1cncn1)c1ccc(Cl)cc1Cl (stereo not drawn) | > 100 | > 100 | > 100 | > 100 | > 100 | > 100 | > 100 | > 100 | > 100 | > 100 |  |  |  |  |  |  |  |  |  | 
3 | Cc1ccc(C(=O)c2nnc(C(=O)c3ccc(C)cc3)nn2)cc1 | > 100 | > 100 | > 100 | > 100 | > 100 | 33.8 | > 100 | > 100 | 36.8 | 44.1 |  |  |  |  |  |  |  |  |  | 
4 | Cc1csc(=S)n1OC(=O)NC1CCCCC1 | > 79.9 | > 100 | > 100 | > 100 | > 100 | > 100 | > 100 | > 69.7 | > 100 | > 100 |  |  |  |  |  |  |  |  |  | 
5 | COc1ccc(C2=Nc3ccccc3NC(=O)C2)cc1 | > 100 | > 100 | > 100 | 54 | > 100 | > 100 | > 100 | > 100 | 38.2 | 45 |  |  |  |  |  |  |  |  |  | 
6 | O=C(N/C(=C\c1ccc2c(c1)OCO2)c1nc2ccccc2[nH]1)c1ccccc1 | > 100 | > 87.3 | > 100 | 58.7 | 77.1 | > 100 | 81.9 | 52.1 | > 100 | > 100 |  |  |  |  |  |  |  |  |  | 
7 | COc1cc(C(=O)C/C(CCCC(=O)Nc2ccccc2[N+](=O)[O-])=N/NC(=O)c2cc3ccccc3cc2O)ccc1O | 43.6 | > 76.2 | > 74.3 | > 100 | > 100 | > 100 | > 100 | > 100 | 95.7 | > 100 |  |  |  |  |  |  |  |  |  | 
8 | CCCC(=O)OC1C(C(O)CO)OC2OC(C)(C)OC21 (stereo not drawn) | > 100 | > 100 | > 100 | > 100 | > 100 | > 100 | > 100 | > 100 | > 100 | > 100 |  |  |  |  |  |  |  |  |  | 
9 | C=CCC[CH2][Sn]([c]1ccccc1)([c]1ccccc1)[c]1ccccc1 | 3.03 | 3.11 | 3.07 | 3.38 | 3.33 | 3.06 | 2.91 | 3.47 | 3.57 | 2.12 | 1580 | 1690 | 1520 | 1780 | 1740 | 1610 | 1540 | 1840 | 1890 | 856
10 | O=C1[C@H]2ON(c3ccccc3)C(c3ccccc3Cl)[C@H]2C(=O)N1c1ccc(Cc2ccc(N3C(=O)[C@@H]4ON(c5ccccc5)C(c5ccccc5Cl)[C@@H]4C3=O)cc2)cc1 (stereo partly drawn) | > 100 | > 100 | > 100 | > 100 | > 100 | > 100 | > 100 | > 100 | > 100 | > 100 |  |  |  |  |  |  |  |  |  | 
11 | CC(=O)OCC1OC(OC2C(CSC3OC(COC(C)=O)C(OC(C)=O)C(OC(C)=O)C3OC(C)=O)OC(OC(C)=O)C(OC(C)=O)C2OC(C)=O)C(OC(C)=O)C(OC(C)=O)C1OC(C)=O (stereo not drawn) | > 100 | > 100 | > 100 | > 100 | > 100 | > 100 | > 100 | > 100 | > 100 | > 100 |  |  |  |  |  |  |  |  |  | 
12 | CC1SC2=NC3=C(c4ccccc4C3=O)C(c3ccc(F)cc3)N2C1=O (stereo not drawn) | > 100 | > 100 | > 100 | > 100 | > 100 | > 100 | > 100 | > 100 | > 100 | > 100 |  |  |  |  |  |  |  |  |  | 
13 | N#C/C(=C\c1ccc(O)c(O)c1)C(N)=S | > 100 | > 100 | > 100 | > 100 | > 100 | > 100 | > 100 | > 100 | > 100 | > 100 |  |  |  |  |  |  |  |  |  | 
14 | O=[N+]([O-])C1C2C=CC(C2)[C@H]1c1ccco1 (stereo partly drawn) | > 100 | > 100 | > 100 | 18.4 | > 100 | > 100 | > 100 |  | > 100 | > 100 |  |  |  |  |  |  |  |  |  | 
15 | CCc1ccccc1NC(=O)C(=O)CC(=O)c1sc(Nc2ccccc2)nc1C | > 100 | > 100 | > 100 | > 100 | > 100 | > 100 | > 100 | > 100 | > 100 | > 100 |  |  |  |  |  |  |  |  |  | 
16 | C#CCOCn1cnc2c(Cl)ncnc21 | > 100 | > 100 |  | > 100 | > 100 | > 100 | > 100 | > 100 | > 100 | > 100 |  |  |  |  |  |  |  |  |  | 
